The record followed here is patent US7893068B2, “Physiologically active substances” (Mercian Corporation, priority 2002, dated 2011).

The subject of data set [1] is VEGF promoter. Briefly: VEGF transcription-suppressing activity (VEGF promoter-PLAP reporter, U251/1-8 cells, hypoxia). The class given is cell-based. As to conditions: Homo sapiens, read-out: VEGF transcription-suppressing activities (IC50: nM). An excerpt:
In order to prepare reporter system reflecting transcription from VEGF promoter, VEGF promoter sequence was cloned, and inserted in secretory alkaline phosphatase (PLAP) vector to construct reporter vector.
In order to obtain the promoter region of human VEGF, VEGF genomic DNA was cloned from phage library. PCR primers having the sequences described in Sequence Numbers 1 and 2 were designed based on VEGF cDNA (GenBank accession number: X62568) and a fragment having about 340 bp was obtained by carrying out PCR. Human genomic phage library (Human genomic library, Clontech Co.) was screened using this as a probe to obtain VEGF genomic DNA. The DNA was digested by EcoRI, and the resultant fragments were inserted in the EcoRI site of pUC18. Finally, pUC18-VEGFA containing about 5.4 kb of VEGF 5′ flanking region was obtained. The pUC18-VEGFA was digested by KpnI/NheI, VEGF promoter region of about 2.3 kb obtained was inserted in the multi cloning site KpnI/NheI of secretory alkaline phosphatase (PLAP) vector (Goto et al, Mol. Pharmacol., 49, 860-873, 1996), and thus, VEGF-PLAP vector was constructed.
The above-mentioned VEGF-PLAP vector was transfected in the U251 cell cultured in the DULBECCO-modified eagle medium (DMEM; manufactured by SIGMA Co., Ltd.) containing 10% fetal calf serum, and the cells were cultured in the presence of 1 mg/mL G418 (Merck Co.) to establish G418 resistant stable clone (U251/1-8 cell).
It was confirmed that U251/1-8 cell secreted PLAP under hypoxic condition (2% O2 incubator) in the same manner as in the report (Cell. Mol. Biol. Res. 40, 35-39, 1994) and was a reporter system reflecting the transcription from VEGF promoter. The screening of the compound suppressing VEGF production which was induced by hypoxic stimulation was carried out below using the clone.
In order to remove the influence of alkaline phosphates in serum, U251/1-8 cells were rinsed twice with the adequate amount of PBS (Phosphate buffered saline), diluted in the DMEM medium containing 10% of serum in which alkaline phosphates was inactivated by the treatment of 65° C. for 20 min., and dispensed in 96-well plates by 4×10^4 cells/180 μL.
After culturing at 37° C. overnight in a CO2 incubator (5% CO2), 20 μL of the above-mentioned incubation solution containing the test compound diluted with 3-fold succession was added, and then they were incubated in a hypoxic (2% […]) incubator for 18 hours. With respect to the PLAP activity in the culture supernatants, 10 μL of the supernatants was added to 50 μL of 0.28 M Na2CO3—NaHCO3 buffer solution (pH 10.0, 8.0 mM MgSO4), and finally 50 μL of alkaline phosphatase substrate (LUMISTEIN, Genomescience Co.) was added. After reacting for one hour, the alkaline phosphatase activity of the PLAP was measured by detecting the chemical luminescence by a micro plate reader (Perkin-Elmer Co.). The PLAP activity under normoxia was set as 0%, the PLAP activity of cell which was treated under hypoxia was set as 100%, and the concentration suppressing the PLAP activity by 50% was set as the IC50 value of PLAP. The IC50 values of 11107D derivatives shown in Examples were measured, and the IC50 values of representative 11107D derivatives are shown in Table 1.

Data set [2] has as its system WiDr human colon cancer cells. The experiment in a line: Growth inhibitory activities on WiDr human colon cancer cells (MTT). The class given is cell-based. The note with it: 72 h, three days incubation. Here is the method: WiDr human colon cancer cells cultured in DULBECCO-modified eagle medium (DMEM; manufactured by SIGMA Co., Ltd.) containing 10% fetal calf serum, penicillin (100 unit/mL) and streptomycin (100 μg/mL) were dispensed in 96-well plates by 2×10^3 cells/well. After culturing overnight in a CO2 incubator, 20 μL of the above-mentioned incubation solution containing the test compound diluted with 3-fold succession was added, followed by incubation. After three days, 50 μL of 3.3 mg/mL MTT solution was added, followed by culturing for further one hour. Then, formazan formed by the reduction by the action of living cells was extracted with 100 μL of DMSO, the absorbance (A540/A660) was determined and was set as the index of the number of living cells.
The concentrations of the compounds of the formula (I) at which the growth of WiDr human colon cancer cells are inhibited 50% were determined.

Data set [3] can be described thus: Stability in an aqueous solution (HPLC residual ratio). As to conditions: for Peak area (mAU × sec) after 24 hours / The residual ratios (%): Britton-Robinson's buffer pH 7, 25° C., 24 hours; for Peak area (mAU × sec) initial: Britton-Robinson's buffer pH 7, before incubation.
Method: The compounds of the formula (I) were dissolved in DMSO in concentrations of 10 to 20 mM, and these were diluted about 500 folds with Britton-Robinson's buffer solution of pH 7. Each of the solutions as sample solutions was incubated at 25° C. for 24 hours.
The sample solutions were analyzed by high performance liquid chromatography before and after incubation, and the residual ratios of the tested substances in the sample solutions after incubation were determined from the peak areas of the obtained chromatograms.
Data set [4] relates to WiDr human colon cancer cells. Briefly: Solid tumor growth inhibitory activities, WiDr human colon tumor model in nude mice. The format is in vivo. As to conditions: Mus musculus, iv, 360 h, read-out: Growth inhibitory activities in the WiDr human solid tumor model (T/C %). The source says:
(§1) In order to study solid tumor growth inhibitory activities of the compounds of the formula (I) in vivo, WiDr human colon cancer cells were implanted subcutaneously into the flanks of nude mice. […]. The animals were grouped so that the average of the volumes of the respective groups became uniform, when it reached about 100 mm^3. Control group was made up of 10 mice and 11107D-administering groups were made up of 5 mice. The derivatives were administered for the administering groups for 5 consecutive days by intravenous injection so as to be any of 0.625 mg, 1.25 mg, 2.5 mg, 5 mg and 10 mg/kg/day, and a vehicle was administered to the control group. The tumor volumes on Day 15 were measured, and relative tumor volume ratios (T/C %) were determined setting the tumor volume of the control group as 100%. The body weights on Day 1, Day 5, Day 8, Day 12 and Day 15 (or 16) were measured, and relative body weight variations were determined setting the body weight on Day 1 as 100%. The relative body weight ratios on the day where the body weight reached the minimum were defined as the minimum relative weight ratios and are shown in Table 3.

A short description of data set [5]: Body weight loss (acute toxicity) in the WiDr tumor model. The class given is in vivo, nude mice. As to conditions: Dose 2.5 mg/kg, intravenous 5 consecutive days; body weight relative to Day 1.
From the text: as §1

Molecules are shown by their SMILES. Read-outs that look alike come from different tables or passages of the source.

As a reminder, the IC50 is the concentration that inhibits the measured activity by half. In the case of `CCC(O)C(C)C1OC1CC(C)(O)/C=C/C=C(\C)C1OC(=O)CC(O)CCC(C)(OC)C(OC(=O)N2C[C@@H]3C[C@H]2CN3CC)/C=C/C1C` (stereo in doubt) [Compound 122, (8E,12E,14E)-7-(((1S,4S)-5-Ethyl-2,5-diazabicyclo[2.2.1]heptan-2-yl)carbonyl)oxy-3,16,21-trihydroxy-6-methoxy-6,10,12,16,20-pentamethyl-18,19-epoxytricosa-8,12,14-trien-11-olide], in data set [1] (U-251, 18 h), the half-inhibitory concentration (IC50) came out at 4.4 nM. In data set [2], this molecule gave an IC50 of 1.1 nM. In data set [3], the “Peak area (mAU × sec) after 24 hours” value is recorded as 4620 mAU × sec, the “The residual ratios (%)” value is 94.8% and the “Peak area (mAU × sec) initial” value is recorded as 4872 mAU × sec.
Turning to `CCC(O)C(C)C1OC1CC(C)(O)/C=C/C=C(\C)C1OC(=O)CC(O)CCC(C)(O)C(OC(=O)N(C)C2CCN(C)CC2)/C=C/C1C` (centres unmarked) [Compound 15, (8E,12E,14E)-3,6,16,21-Tetrahydroxy-6,10,12,16,20-pentamethyl-7-(N-methyl-N-(1-methylpiperidin-4-yl)carbamoyloxy)-18,19-epoxytricosa-8,12,14-trien-11-olide], the response vs control in vivo at 2.5 mg/kg in data set [4] was determined as 36%. The “the minimum relative weight ratios” value in data set [5] came to 0.82.
Consider `CCC(O)C(C)C1OC1CC(C)(O)/C=C/C=C(\C)C1OC(=O)CC(O)CCC(C)(O)C(OC(=O)N2CCCN(Cc3ccccc3)CC2)/C=C/C1C` (centres unmarked) [Compound 17, (8E,12E,14E)-7-((4-Benzylhomopiperazin-1-yl)carbonyl)oxy-3,6,16,21-tetrahydroxy-6,10,12,16,20-pentamethyl-18,19-epoxytricosa-8,12,14-trien-11-olide], for which the IC50 in data set [1] (U-251, 18 h) was found to be 3.9 nM; in data set [2] it was 2.6 nM.
As for `CCC(O)C(C)C1OC1CC(C)(O)/C=C/C=C(\C)C1OC(=O)CC(O)CCC(C)(O)C(OC(=O)N2CCN(Cc3ccccc3)CC2)/C=C/C1C` (centres unmarked) [Compound 24, (8E,12E,14E)-7-((4-Benzylpiperazin-1-yl)carbonyl)oxy-3,6,16,21-tetrahydroxy-6,10,12,16,20-pentamethyl-18,19-epoxytricosa-8,12,14-trien-11-olide], the 50% inhibitory concentration (IC50) in data set [1] (U-251, 18 h) is 5.5 nM; in data set [2] it was 5.3 nM.
As for `CCCN1CCN(C(=O)OC2/C=C/C(C)C(/C(C)=C/C=C/C(C)(O)CC3OC3C(C)C(O)CC)OC(=O)CC(O)CCC2(C)O)CC1` (centres unmarked) [Compound 25, (8E,12E,14E)-3,6,16,21-Tetrahydroxy-6,10,12,16,20-pentamethyl-7-((4-propylpiperazin-1-yl)carbonyl)oxy-18,19-epoxytricosa-8,12,14-trien-11-olide], the IC50 came out at 2.9 nM in data set [1] (U-251, 18 h) and 1.2 nM in data set [2].
The matching figures for `CCC(O)C(C)C1OC1CC(C)(O)/C=C/C=C(\C)C1OC(=O)CC(O)CCC(C)(O)C(OC(=O)N2CCN(CC3CC3)CC2)/C=C/C1C` (centres unmarked) [Compound 27, (8E,12E,14E)-7-((4-(Cyclopropylmethyl)piperazin-1-yl)carbonyl)oxy-3,6,16,21-tetrahydroxy-6,10,12,16,20-pentamethyl-18,19-epoxytricosa-8,12,14-trien-11-olide]: 3.7 nM and 1.2 nM.
In the same order, the values of `CCC(O)C(C)C1OC1CC(C)(O)/C=C/C=C(\C)C1OC(=O)CC(O)CCC(C)(OC)C(OC(=O)N2CCCN(C3CCCCC3)CC2)/C=C/C1C` (centres unmarked) [Compound 95, (8E,12E,14E)-7-((4-Cyclohexylhomopiperazin-1-yl)carbonyl)oxy-3,16,21-trihydroxy-6-methoxy-6,10,12,16,20-pentamethyl-18,19-epoxytricosa-8,12,14-trien-11-olide] are 1.2 nM and 0.5 nM.
Regarding `CCOC1(C)CCC(O)CC(=O)OC(/C(C)=C/C=C/C(C)(O)CC2OC2C(C)C(O)CC)C(C)/C=C/C1OC(=O)N1CCN(C)CC1` (centres unmarked) [Compound 127, (8E,12E,14E)-6-Ethoxy-3,16,21-trihydroxy-6,10,12,16,20-pentamethyl-7-((4-methylpiperazin-1-yl)carbonyl)oxy-18,19-epoxytricosa-8,12,14-trien-11-olide], the 50% inhibitory concentration (IC50) turned out to be 2.4 nM in data set [1] (U-251, U251/1-8 cells, hypoxic incubator 18 hours, PLAP activity) and 0.7 nM in data set [2].
Regarding `CCC(OC)C(C)C1OC1CC(C)(O)/C=C/C=C(\C)C1OC(=O)CC(O)CCC(C)(O)C(OC(=O)N2CCN(C(C)C)CC2)/C=C/C1C` (centres unmarked) [Compound 130, (8E,12E,14E)-3,6,16-Trihydroxy-7-((4-isopropylpiperazin-1-yl)carbonyl)oxy-21-methoxy-6,10,12,16,20-pentamethyl-18,19-epoxytricosa-8,12,14-trien-11-olide], in data set [3], the “Peak area (mAU × sec) after 24 hours” value was 4583 mAU × sec, the “The residual ratios (%)” value is given as 95.1% and the “Peak area (mAU × sec) initial” value came to 4819 mAU × sec.
Take `CCC(O)C(C)C1OC1CC(C)(O)/C=C/C=C(\C)C1OC(=O)CC(O)CCC(C)(OC(=O)N2CCCN(CC)CC2)C(OC(C)=O)/C=C/C1C` (centres unmarked) [Compound 136, (8E,12E,14E)-7-Acetoxy-6-((4-ethylhomopiperazin-1-yl)carbonyl)oxy-3,16,21-trihydroxy-6,10,12,16,20-pentamethyl-18,19-epoxytricosa-8,12,14-trien-11-olide]: in data set [1] (U-251, 18 h), the IC50 was determined as 1.2 nM. The same molecule showed an IC50 in data set [2] of 0.8 nM. For the same molecule, in data set [3], the “Peak area (mAU × sec) after 24 hours” value worked out at 3579 mAU × sec, the “The residual ratios (%)” value came out at 95.4% and the “Peak area (mAU × sec) initial” value was 3750 mAU × sec.
As for `CCC(O)C(C)C1OC1CC(C)(O)/C=C/C=C(\C)C1OC(=O)CC(O)CCC(C)(O)C(OC(=O)CCc2ccccc2)/C=C/C1C` (centres unmarked) [Compound 142, (8E,12E,14E)-3,6,16,21-Tetrahydroxy-6,10,12,16,20-pentamethyl-7-(3-phenylpropanoyl)oxy-18,19-epoxytricosa-8,12,14-trien-11-olide], the half-maximal inhibitory concentration (IC50) in data set [1] (U-251, 18 h) was found to be 11.2 nM. Moreover, in data set [2], the IC50 was 4.9 nM. In addition, in data set [3], the “Peak area (mAU × sec) after 24 hours” value is listed as 3705 mAU × sec, the “The residual ratios (%)” value came to 94.6% and the “Peak area (mAU × sec) initial” value turned out to be 3916 mAU × sec.
